# From patent publication US6548041B1, “Dopamine transporter imaging agents” (Organix, Inc., priority 1999, dated 2003)
# Tests used:
# [1] = molecular target: dopamine transporter (DAT); assay: Binding affinity for the dopamine transporter; conditions: for DAT/SERT: selectivity ratio from the IC50 values for DAT and SERT
# [2] = molecular target: SERT (Homo sapiens, UniProt P31645); assay: Binding affinity for SERT (selectivity test)
# [3] = molecular target: T1, DAT sites in striatum (Macaca mulatta, UniProt Q7JHP9); assay: SPECT imaging of monkey brain with 99mTc labeled tracers; format: in vivo, Rhesus monkeys; conditions: for accumulation of radioactivity in striatum vs other areas of the brain (SPECT images): images acquired between 30 and 50 minutes after injection
# T1 construct: from tissue; host or cells: brain (striatum) of living rhesus monkeys, imaged in vivo
# Procedure: (§1) All SPECT images were acquired with a MultiSPECT 2 gamma camera (Siemens, Hoffman Estates, Ill.) equipped with fan-beam collimators and peaked to the 140 KeV photopeak of ^99mTc (15% window). This camera has intrinsic resolution of 4.6 mm (FWHM), and a sensitivity of ˜240 cps/mCi. Images were acquired over 360° (60 projections/head, 128×128 matrix) in the continuous mode. Image reconstruction was performed using a conventional filtered back-projection algorithm to an in-plane resolution of 10 mm FWHM and attenuation correction via the Chang method.
# (§2) Rhesus monkeys weighing approximately 7 kg were anesthetized with ketamine/xylazine (15.0 and 1.5 mg/kg) and positioned prone on the imaging bed of the SPECT camera. Before the start of imaging, a venous catheter was inserted in a peripheral vein for radiopharmaceutical administration. The heads of the animals were immobilized with a custom fabricated head holder. Approximately 20-25 mCi of ^99mTc labeled O-1505T, O-1508T, O-1561T or O-1560T was injected intravenously over 60 seconds. Dynamic SPECT imaging was initiated at the end of the infusion and consisted of 2 min. acquisitions during the first hour and 5 min. acquisitions thereafter.
# (§3) SPECT slices with greatest striatal activity or in which the occipital cortex was well visualized were summed and regions of interest (ROI's) were constructed. In the striatal planes, ROI's were placed on the right and left striatum (caudate+putamen). Radioactivity in the right and left striatum were averaged. ROI radioactivities (cpm/cc) were decay corrected to the time of injection. The difference between striatal and occipital cortex activity (specific binding) was calculated for each image and was plotted as a function of time. Corrections for scattered fraction and partial volume effects were not performed.
# [4] = tested on: DAT sites in striatum; assay: as above; format: in vivo, Rhesus monkeys; conditions: SPECT images
# Procedure: as §1, §2, §3
# [5] = Biodistribution and radiation dosimetry (MIRdose); format: in vivo, Sprague-Dawley rats; conditions: rat, 5 min to 24 hrs after injection
# Procedure: Groups of male Sprague-Dawley rats were in injected with ˜10 mCi of ^99mTc labeled O-1505T and O-1561T. At time intervals between 5 min. and 24 hrs after injection, groups of 6 animals injected with each radiopharmaceutical were sacrificed and biodistribution was measured. Samples of blood, heart, lung, liver, spleen, kidney, adrenal, stomach, GI tract, testes, bone, bone marrow and skeletal muscle were weighed and radioactivity was measured with a well type gamma counter (LKB model #1282, Wallac Oy, Finland). To correct for radioactive decay and permit calculation of the concentration of radioactivity in each organ as a fraction of the administered dose, aliquots of the injected doses were counted simultaneously. The results were expressed as percent injected dose per gram (%I.D./g) and radiation dosimetry was estimated by the MIRdose method.
# Sequence of SERT (P31645 whole entry, species assumed): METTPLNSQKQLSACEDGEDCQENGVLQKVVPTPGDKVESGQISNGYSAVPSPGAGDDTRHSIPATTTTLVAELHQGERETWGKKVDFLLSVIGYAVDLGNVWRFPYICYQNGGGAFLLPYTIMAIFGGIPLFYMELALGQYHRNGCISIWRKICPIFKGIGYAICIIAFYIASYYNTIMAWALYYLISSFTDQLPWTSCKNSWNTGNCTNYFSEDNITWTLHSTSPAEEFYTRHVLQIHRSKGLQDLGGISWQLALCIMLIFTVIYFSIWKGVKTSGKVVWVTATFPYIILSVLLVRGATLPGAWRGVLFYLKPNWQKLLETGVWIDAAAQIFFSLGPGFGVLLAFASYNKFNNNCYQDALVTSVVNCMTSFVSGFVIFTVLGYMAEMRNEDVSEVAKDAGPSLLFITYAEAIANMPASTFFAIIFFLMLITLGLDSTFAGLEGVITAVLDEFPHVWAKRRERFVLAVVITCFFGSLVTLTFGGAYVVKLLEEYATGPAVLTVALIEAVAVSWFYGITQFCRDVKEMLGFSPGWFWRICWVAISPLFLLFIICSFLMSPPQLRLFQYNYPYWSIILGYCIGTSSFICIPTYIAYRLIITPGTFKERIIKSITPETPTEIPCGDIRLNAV
# T1 sequence (Q7JHP9 1-620): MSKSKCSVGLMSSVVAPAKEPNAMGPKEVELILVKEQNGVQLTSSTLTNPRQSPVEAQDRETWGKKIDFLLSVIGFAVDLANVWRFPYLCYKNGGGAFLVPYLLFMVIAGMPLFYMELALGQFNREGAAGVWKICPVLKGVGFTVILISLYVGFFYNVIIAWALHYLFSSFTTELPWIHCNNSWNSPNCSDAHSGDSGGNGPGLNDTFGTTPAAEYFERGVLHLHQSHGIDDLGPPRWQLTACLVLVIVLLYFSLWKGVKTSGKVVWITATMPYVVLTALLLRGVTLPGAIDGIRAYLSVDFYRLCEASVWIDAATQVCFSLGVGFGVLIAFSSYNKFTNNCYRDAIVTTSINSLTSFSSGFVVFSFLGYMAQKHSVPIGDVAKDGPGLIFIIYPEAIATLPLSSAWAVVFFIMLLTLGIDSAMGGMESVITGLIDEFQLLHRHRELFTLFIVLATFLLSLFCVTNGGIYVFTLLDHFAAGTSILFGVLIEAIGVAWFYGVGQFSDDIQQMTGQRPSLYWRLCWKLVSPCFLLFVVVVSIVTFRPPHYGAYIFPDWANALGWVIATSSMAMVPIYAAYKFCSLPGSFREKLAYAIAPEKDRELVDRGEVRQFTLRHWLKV
SMILES,IC50 [1] [nM],DAT/SERT [1],IC50 [2] [nM],also measured
"COC(=O)C1=C(c2ccc(Cl)c(Cl)c2)CC2CCC1N2CCC[N+]12CC[S][Re-]13(=[O])[S]CC[N]3C(=O)C2 (centres unmarked) [Compound O-1136, N-[(2-((3′-N′-Propyl-(1″R)-3″-(3,4-dichlorophenyl)trop-2-ene-2″-methoxycarbonyl)(2-mercaptoethyl)amino)acetyl)-2-aminoethane-thiolato]rhenium (V) Oxide]",60,28,1690,–
COC(=O)C1C(c2ccc(F)cc2)CC2CCC1N2CCC[N+]12CC[S][Re-]13(=[O])[S]CC[N]3C(=O)C2 (centres unmarked) [Compound O-1186],3.8,340,1300,–
"CCC(=O)C1C(c2ccc(Cl)c(Cl)c2)CC2CCC1N2CCCN1CC[S][99Tc]2(=[O])[S]CC[N]2C(=O)C1 (stereo not drawn) [Compound O-1560T, N-[(2-((3′-N′-Propyl-(1″R)-2″β-1-propanoyl-3″β-(3,4-dichlorophenyl)-tropane)(2-mercaptoethyl)amino)acetyl)-2-aminoethanethiolato]-technetium (V) Oxide]",–,–,–,accumulation of radioactivity in striatum vs other areas of the brain (SPECT images) [3]: results more like O-1505T and O-1561T
COC(=O)C1C(c2ccc(F)cc2)CC2CCC1N2CCC[N+]12CC[S][Re-]13(=[O])[S]CC[N]3C(=O)C2 (mixture of isomers) [Compound O-861],2.9,28,80,–
"CON(C)C(=O)C1C(c2ccc(F)cc2)CC2CCC1N2CCC[N+]12CC[S][Re-]13(=[O])[S]CC[N]3C(=O)C2 (stereo not drawn) [Compound O-1451, N-[(2-((3′-N′-Propyl-(1″R)-3″α-(4-fluorophenyl)tropane-2″β-methoxymethylcarbamoyl)(2-mercaptoethyl)amino)acetyl)-2-aminoethanethiolato]rhenium (V) Oxide]",40,80,3260,–
"COC(=O)C1C(c2ccc(Cl)c(Cl)c2)CC2CCC1N2CCC[N+]12CC[S][Re-]13(=[O])[S]CC[N]3C(=O)C2 (stereo not drawn) [Compound O-1196, N-[(2-((3′-N′-Propyl-(1″R)-3″α-(3,4-dichlorophenyl)-2″β-methoxy-carbonyltropane)(2-mercaptoethyl)amino)acetyl)-2-aminoethanethiolato]rhenium (V) Oxide]",10,64,640,–
COC(=O)C1C(c2ccc(Cl)c(Cl)c2)CC2CCC1N2CCC[N+]12CC[S][Re-]13(=[O])[S]CC[N]3C(=O)C2 (mixture of isomers) [Compound O-863],40,–,–,–
"COC(=O)C1C(c2ccc(F)cc2)CC2CCC1N2CCCN1CC[S][Re]2(=[O])[S]CC[N]2C(=O)C1 (single isomer, unassigned) [Compound O-927]",5,40,200,–
"CCC(=O)C1C(c2ccc(F)cc2)CC2CCC1N2CCC[N+]12CC[S][Re-]13(=[O])[S]CC[N]3C(=O)C2 (stereo not drawn) [Compound O-1505, N-[(2-((3′-N′-Propyl-(1″R)-3″α-(4-fluorophenyl)tropane-2″β-1′″-propanoyl)(2-mercaptoethyl)amino)acetyl)-2-aminoethane-thiolato]rhenium (V) Oxide]",2,249,497,–
"CCC(=O)C1C(c2ccc(Cl)c(Cl)c2)CC2CCC1N2CCCN1CC[S][99Tc]2(=[O])[S]CC[N]2C(=O)C1 (stereo not drawn) [Compound O-1561T, N-[(2-((3′-N′-Propyl-(1″R)-2″β-1-propanoyl-3″α-(3,4-dichlorophenyl)-tropane)(2-mercaptoethyl)amino)acetyl)-2-aminoethanethiolato]-technetium (V) Oxide]",–,–,–,"time after injection to excellent contrast between striatum and the rest of the brain ([3]; i.v., normal monkeys): ≤ 30 min; accumulation of radioactivity in striatum vs other areas of the brain (SPECT images) [3]: high concentrations of radiopharmaceutical in the striatum with minimal accumulation in other areas of the brain; striatal to occipital cortex ratio ([3]; region of interest analysis, SPECT images 30-50 minutes after i.v. injection of 20-25 mCi): ~2.5; accumulation in thalamus, hypothalamus or midbrain (regions rich in 5-HT transporters) [4]: lack of accumulation; clearance from tissues (biodistribution) [5]: cleared rapidly from all tissues of the rat"
"CCC(=O)C1C(c2ccc(F)cc2)CC2CCC1N2CCCN1CC[S][Re]2(=[O])[S]CC[N]2C(=O)C1 (mixture of isomers) [Compound O-1508, N-[(2-((3′-N′-Propyl-(1″R)-3″β-(4-fluorophenyl)tropane-2″β-1-propanoyl)(2-mercaptoethyl)amino)acetyl)-2-aminoethane-thiolato]rhenium (V) oxide]",5.9,34,200,–
"COC(=O)C1C(c2ccc(F)cc2)CC2CCC1N2CCCN1CC[S][Re]2(=[O])[S]CC[N]2C(=O)C1 (single isomer, unassigned) [Compound O-928]",3,10,30,–
"CCC(=O)C1C(c2ccc(F)cc2)CC2CCC1N2CCCN1CC[S][99Tc]2(=[O])[S]CC[N]2C(=O)C1 (stereo not drawn) [Compound O-1508T, N-[(2-((3′-N′-Propyl-(1″R)-3″β-(4-fluorophenyl)tropane-2″β-1-propanoyl)-(2-mercaptoethyl)amino)acetyl)-2-aminoethanethiolato]technetium (V) Oxide]",–,–,–,accumulation of radioactivity in striatum vs other areas of the brain (SPECT images) [3]: failing to demonstrate significant accumulation of radioactivity in striatum or elsewhere in the brain
"COC(=O)C1=C(c2ccc3ccccc3c2)CC2CCC1N2CCC[N+]12CC[S][Re-]13(=[O])[S]CC[N]3C(=O)C2 (mixture of isomers) [Compound O-1185, N-[(2-((3′-N′-Propyl-(1″R)-2″-methoxycarbonyl-3″-(2-naphthyl)-trop-2-ene)(2-mercaptoethyl)amino)acetyl)-2-aminoethane-thiolato]-rhenium (V) Oxide]",63,15,960,–
"COC(=O)C1C(c2ccc3ccccc3c2)CC2CCC1N2CCC[N+]12CC[S][Re-]13(=[O])[S]CC[N]3C(=O)C2 (mixture of isomers) [Compound O-1339, N-[(2-((3′-N′-Propyl-(1″R)-2″β-methoxycarbonyl-3″β-(2-naphthyl)-tropane)(2-mercaptoethyl)amino)acetyl)-2-aminoethanethiolato]-rhenium (V) Oxide]",3.6,16,59,–
"CCC(=O)C1C(c2ccc(Cl)c(Cl)c2)CC2CCC1N2CCCN1CC[S][Re]2(=[O])[S]CC[N]2C(=O)C1 (mixture of isomers) [Compound O-1561, N-[(2-((3′-N′-Propyl-(1″R)-3″α-(3,4-dichlorophenyl)tropane-2″β-1′″-propanoyl)(2-mercaptoethyl)amino)acetyl)-2-aminoethane-thiolato]rhenium (V) Oxide]",5.3,63,337,–
